Measurements taken from PMC8911884, “Discovery of Novel 3,4-Dihydro-2(1H)-Quinolinone Sulfonamide Derivatives as New Tubulin Polymerization Inhibitors with Anti-Cancer Activity” (Molecules, 2022).
Each block holds one molecule with its values, some of them ahead of it.

What was measured:
HeLa = experiment: MTT antiproliferative assay, HeLa; format: cell-based, human; details: 48 h, mean ± SD
From the text: (§1) The MTT method was used to evaluate the anti-tumor activity and cytotoxic activity of all the synthesized compounds in four tumor cell lines (HeLa, HCT-116, A549 and HepG-2) and normal liver cells (L02). At the same time, the 5-fluorouracil(5-Fu) and CA-4 were used as positive references. […] Unfortunately, our target compound has a similar cytotoxicity to tumor cells and normal cells.
(§2) The HeLa, HCT-116, A549 and HepG-2 cells in the logarithmic growth phase were trypsinized, diluted with 10% DMEM medium and evenly seeded in a 96-well plate with 1 × 10^4 cells per well. We placed the inoculated 96-well plate in an incubator at 37 °C and 5% CO2 for 4 h. After the cells adhered to the wall, we removed the medium. We added 150 μL of medicated medium (1% DMEM) to each well of the experimental group, and the control group was added with an equal volume of solvent, with 3 replicate holes for each concentration. Then, we put it in the incubator and continued to incubate for 48 h. After that, we added MTT reagent in the dark, continued incubating for 4 h, discarded the supernatant, added 150 µL DMSO to each well and shook it for 10 min in the dark to fully dissolved the formazan. The absorbance was read at 492 nm by a microplate reader (ELx 800, BioTek, Highland Park, Winooski, VT, USA).
(§3) The inhibition rate (%) = (1-dosing hole OD value/control hole OD value); we drew a logarithmic curve diagram according to the inhibition rate and the dosing concentration to obtain the half inhibitory concentration.

A549 = experiment: MTT antiproliferative assay, A549; format: cell-based, human; details: mean ± SD
Procedure: The MTT method was used to evaluate the anti-tumor activity and cytotoxic activity of all the synthesized compounds in four tumor cell lines (HeLa, HCT-116, A549 and HepG-2) and normal liver cells (L02).
as §2, §3

HCT116 = experiment: MTT antiproliferative assay, HCT116; format: cell-based, human; details: mean ± SD
From the text: as §1, §2, §3

HepG-2 = experiment: MTT antiproliferative assay, HepG-2; format: cell-based, human; details: mean ± SD
From the text: as §1, §2, §3

L02 = experiment: MTT cytotoxicity assay, normal liver cells L02; format: cell-based; details: mean ± SD
From the text: as §1, §2, §3

[1] = test system: HeLa, HCT-116, A549 and HepG-2; experiment: MTT antiproliferative activity across the four tumor cell lines; format: cell-based, human; details: SAR discussion
From the text: as §1
As shown in, at the beginning, we first synthesized the ortho and meta substituted compounds, D7, D8, D9, D11 and D15. […] Then, we decided to introduce para-substituted benzaldehyde. […] This stimulated our interest, so we continued to introduce -OCH3 substituted at different positions to explore the effect of -OCH3 substituted at different positions on the anti-tumor activity of the compound. […] In short, we obtained a compound named D13 with good anti-tumor activity, and it was worthy of further study.
as §2, §3

Molecule: COc1cc(N(Cc2ccc(C)cc2)S(=O)(=O)c2ccc3c(c2)CCC(=O)N3)cc(OC)c1OC [Compound D5, N-(4-methylbenzyl)-2-oxo-N-(3,4,5-trimethoxyphenyl)-1,2,3,4-tetrahydroquinoline-6-sulfonamide]
IC50 (HeLa; Homo sapiens, HeLa): 1.34 ± 0.3 µM | IC50 (A549; Homo sapiens, A549, 48 h): 2.96 ± 0.13 µM | IC50 (HCT116; Homo sapiens, HCT-116, 48 h): 1.13 ± 0.01 µM | IC50 (HepG-2; Homo sapiens, HepG2, 48 h): 2.36 ± 0.11 µM | IC50 (L02; Homo sapiens, L02, 48 h): 3.05 ± 0.19 µM | antiproliferative activity (in words) [1]: strong anti-proliferative activity | melting point: 128 to 130 °C

Molecule: COc1cc(N(Cc2ccc(Cl)c(Cl)c2)S(=O)(=O)c2ccc3c(c2)CCC(=O)N3)cc(OC)c1OC [Compound D10, N-(3,4-dichlorobenzyl)-2-oxo-N-(3,4,5-trimethoxyphenyl)-1,2,3,4-tetrahydroquinoline-6-sulfonamide]
IC50 (HeLa; Homo sapiens, HeLa): 75.3 ± 10.3 µM | IC50 (A549; Homo sapiens, A549, 48 h): > 100 µM | IC50 (HCT116; Homo sapiens, HCT-116, 48 h): 51.2 ± 13.5 µM | IC50 (L02; Homo sapiens, L02, 48 h): 48.3 ± 6.64 µM | melting point: 123 to 125 °C

Molecule: COc1ccc(OC)c(CN(c2cc(OC)c(OC)c(OC)c2)S(=O)(=O)c2ccc3c(c2)CCC(=O)N3)c1 [Compound D15]
IC50 (HeLa; Homo sapiens, HeLa): 86.4 ± 14.2 µM | IC50 (HCT116; Homo sapiens, HCT-116, 48 h): > 100 µM | IC50 (HepG-2; Homo sapiens, HepG2, 48 h): 75.4 ± 15.4 µM | IC50 (L02; Homo sapiens, L02, 48 h): > 100 µM | antiproliferative activity (in words) [1]: poor antiproliferative activity | melting point: 127 to 129 °C

Molecule: COc1cc(N(Cc2ccc(Cl)cc2)S(=O)(=O)c2ccc3c(c2)CCC(=O)N3)cc(OC)c1OC [Compound D4, N-(4-chlorobenzyl)-2-oxo-N-(3,4,5-trimethoxyphenyl)-1,2,3,4-tetrahydroquinoline-6-sulfonamide]
IC50 (HeLa; Homo sapiens, HeLa): 9.67 ± 2.1 µM | IC50 (A549; Homo sapiens, A549, 48 h): 8.49 ± 1.77 µM | IC50 (HCT116; Homo sapiens, HCT-116, 48 h): 4.21 ± 0.5 µM | IC50 (HepG-2; Homo sapiens, HepG2, 48 h): 4.12 ± 0.55 µM | IC50 (L02; Homo sapiens, L02, 48 h): 6.35 ± 2.03 µM | antiproliferative activity (in words) [1]: strong anti-proliferative activity | melting point: 119 to 121 °C

Molecule: COc1ccc(/C=C\c2cc(OC)c(OC)c(OC)c2)cc1O [CA-4, Combretastatin A-4, reference compound]
IC50 (HeLa; Homo sapiens, HeLa): 0.02 ± 0.001 µM | IC50 (A549; Homo sapiens, A549, 48 h): 0.12 ± 0.023 µM | IC50 (HCT116; Homo sapiens, HCT-116, 48 h): 0.04 ± 0.016 µM | IC50 (HepG-2; Homo sapiens, HepG2, 48 h): 0.05 ± 0.021 µM | IC50 (L02; Homo sapiens, L02, 48 h): 0.15 ± 0.05 µM

Molecule: COc1cccc(CN(c2cc(OC)c(OC)c(OC)c2)S(=O)(=O)c2ccc3c(c2)CCC(=O)N3)c1 [Compound D12, N-(3-methoxybenzyl)-2-oxo-N-(3,4,5-trimethoxyphenyl)-1,2,3,4-tetrahydroquinoline-6-sulfonamide]
IC50 (HeLa; Homo sapiens, HeLa): 54.6 ± 8.15 µM | IC50 (HCT116; Homo sapiens, HCT-116, 48 h): 48.2 ± 7.46 µM | IC50 (HepG-2; Homo sapiens, HepG2, 48 h): 64.1 ± 7.56 µM | IC50 (L02; Homo sapiens, L02, 48 h): 56.3 ± 2.15 µM | antiproliferative activity (in words) [1]: poor antiproliferative activity | melting point: 121 to 123 °C

Molecule: COc1cc(CN(c2cc(OC)c(OC)c(OC)c2)S(=O)(=O)c2ccc3c(c2)CCC(=O)N3)cc(OC)c1OC [Compound D16, 2-oxo-N-(3,4,5-trimethoxybenzyl)-N-(3,4,5-trimethoxyphenyl)-1,2,3,4-tetrahydroquinoline-6-sulfonamide]
IC50 (HeLa; Homo sapiens, HeLa): 4.91 ± 0.76 µM | IC50 (A549; Homo sapiens, A549, 48 h): 7.34 ± 1.44 µM | IC50 (HCT116; Homo sapiens, HCT-116, 48 h): 2.08 ± 0.24 µM | IC50 (HepG-2; Homo sapiens, HepG2, 48 h): 5.48 ± 1.23 µM | IC50 (L02; Homo sapiens, L02, 48 h): 4.25 ± 0.87 µM | melting point: 131 to 133 °C

Molecule: N-benzyl-2-oxo-N-(3,4,5-trimethoxyphenyl)-1,2,3,4-tetrahydroquinoline-7-sulfonamide [Compound D1]
IC50 (HeLa): 13.5 ± 2.15 µM | IC50 (A549; 48 h): 14.2 ± 1.26 µM | IC50 (HCT116; 48 h): 25.9 ± 0.98 µM | IC50 (HepG-2; 48 h): 9.87 ± 2.49 µM | IC50 (L02; 48 h): 20.7 ± 3.12 µM | antiproliferative activity (in words) [1]: strong anti-proliferative activity

Further lines, with some results ahead:

IC50 (HeLa; Homo sapiens, HeLa): 16.9 ± 4.11 µM | IC50 (A549; Homo sapiens, A549, 48 h): 31.7 ± 4.55 µM | IC50 (HCT116; Homo sapiens, HCT-116, 48 h): 12.2 ± 2.89 µM | melting point: 117 to 119 °C
Molecule: COc1cc(N(Cc2ccccc2Cl)S(=O)(=O)c2ccc3c(c2)CCC(=O)N3)cc(OC)c1OC [Compound D9, N-(2-chlorobenzyl)-2-oxo-N-(3,4,5-trimethoxyphenyl)-1,2,3,4-tetrahydroquinoline-6-sulfonamide]
IC50 (HepG-2; Homo sapiens, HepG2, 48 h): 27.5 ± 3.28 µM | IC50 (L02; Homo sapiens, L02, 48 h): 36.2 ± 4.21 µM | antiproliferative activity (in words) [1]: poor antiproliferative activity

IC50 (HeLa; Homo sapiens, HeLa): > 100 µM | IC50 (A549; Homo sapiens, A549, 48 h): 49.3 ± 12.5 µM | IC50 (HCT116; Homo sapiens, HCT-116, 48 h): 87.8 ± 15.2 µM | melting point: 116 to 118 °C
Molecule: COc1ccc(CN(c2cc(OC)c(OC)c(OC)c2)S(=O)(=O)c2ccc3c(c2)CCC(=O)N3)cc1OC [Compound D14, N-(3,4-dimethoxybenzyl)-2-oxo-N-(3,4,5-trimethoxyphenyl)-1,2,3,4-tetrahydroquinoline-6-sulfonamide]
IC50 (L02; Homo sapiens, L02, 48 h): 66.5 ± 7.81 µM | antiproliferative activity (in words) [1]: poor antiproliferative activity

IC50 (HeLa; Homo sapiens, HeLa): 29.6 ± 3.21 µM | IC50 (HCT116; Homo sapiens, HCT-116, 48 h): 11.7 ± 2.37 µM
Molecule: O=c1[nH]cc(F)c(=O)[nH]1 [Compound 5-Fu, 5-fluorouracil, reference compound]
IC50 (HepG-2; Homo sapiens, HepG2, 48 h): 18.3 ± 0.76 µM | IC50 (L02; Homo sapiens, L02, 48 h): 20 ± 1.25 µM

IC50 (HeLa; Homo sapiens, HeLa): 21.6 ± 3.56 µM | IC50 (A549; Homo sapiens, A549, 48 h): > 100 µM | IC50 (HCT116; Homo sapiens, HCT-116, 48 h): 17.5 ± 1.33 µM | melting point: 138 to 140 °C
Molecule: COc1cc(N(Cc2ccccc2F)S(=O)(=O)c2ccc3c(c2)CCC(=O)N3)cc(OC)c1OC [Compound D8, N-(2-fluorobenzyl)-2-oxo-N-(3,4,5-trimethoxyphenyl)-1,2,3,4-tetrahydroquinoline-6-sulfonamide]
IC50 (HepG-2; Homo sapiens, HepG2, 48 h): 50.9 ± 6.77 µM | IC50 (L02; Homo sapiens, L02, 48 h): 60.2 ± 4.21 µM | antiproliferative activity (in words) [1]: poor antiproliferative activity

IC50 (HeLa; Homo sapiens, HeLa): 7.54 ± 1.48 µM | IC50 (A549; Homo sapiens, A549, 48 h): 18.2 ± 4.11 µM | IC50 (HCT116; Homo sapiens, HCT-116, 48 h): 3.87 ± 0.12 µM | melting point: 108 to 110 °C
Molecule: COc1cc(N(Cc2ccc(F)cc2)S(=O)(=O)c2ccc3c(c2)CCC(=O)N3)cc(OC)c1OC [Compound D3, N-(4-fluorobenzyl)-2-oxo-N-(3,4,5-trimethoxyphenyl)-1,2,3,4-tetrahydroquinoline-6-sulfonamide]
IC50 (HepG-2; Homo sapiens, HepG2, 48 h): 6.31 ± 1.21 µM | IC50 (L02; Homo sapiens, L02, 48 h): 5.31 ± 1.08 µM | antiproliferative activity (in words) [1]: strong anti-proliferative activity

IC50 (HeLa; Homo sapiens, HeLa): 36.5 ± 3.59 µM | IC50 (A549; Homo sapiens, A549, 48 h): 35 ± 6.74 µM | IC50 (HCT116; Homo sapiens, HCT-116, 48 h): 28.2 ± 4.26 µM | melting point: 120 to 122 °C
Molecule: COc1cc(N(Cc2cccc(C)c2)S(=O)(=O)c2ccc3c(c2)CCC(=O)N3)cc(OC)c1OC [Compound D7, N-(3-methylbenzyl)-2-oxo-N-(3,4,5-trimethoxyphenyl)-1,2,3,4-tetrahydroquinoline-6-sulfonamide]
IC50 (HepG-2; Homo sapiens, HepG2, 48 h): 44.3 ± 4.31 µM | IC50 (L02; Homo sapiens, L02, 48 h): 30.2 ± 2.56 µM | antiproliferative activity (in words) [1]: poor antiproliferative activity

IC50 (HeLa; Homo sapiens, HeLa): 3.63 ± 0.98 µM | IC50 (A549; Homo sapiens, A549, 48 h): 2.42 ± 0.46 µM | IC50 (HCT116; Homo sapiens, HCT-116, 48 h): 2.05 ± 0.11 µM | melting point: 127 to 129 °C
Molecule: COc1cc(N(Cc2ccc(N(C)C)cc2)S(=O)(=O)c2ccc3c(c2)CCC(=O)N3)cc(OC)c1OC [Compound D6, N-(4-(dimethylamino)benzyl)-2-oxo-N-(3,4,5-trimethoxyphenyl)-1,2,3,4-tetrahydroquinoline-6-sulfonamide]
IC50 (HepG-2; Homo sapiens, HepG2, 48 h): 4.74 ± 1.56 µM | IC50 (L02; Homo sapiens, L02, 48 h): 5.31 ± 1.02 µM | antiproliferative activity (in words) [1]: strong anti-proliferative activity
